The values that follow are results of earlier work, collected in patent US20190054067A1, “COMPOSITIONS AND METHODS FOR TREATING COMPULSIVE-LIKE BEHAVIOR IN A SUBJECT” (UNIVERSITY OF THE SCIENCES, priority 2016, published 2019).

One series concerns compulsive-like BIG mice. Particulars: cited from earlier work.
The test system of series [1] is compulsive-like BIG male mice. The settings on record: compulsive-like BIG mice (Greene-Schloesser et al., 2011); cited from earlier work.
In series [2] the test system is compulsive-like BIG male mice. Particulars: compulsive-like BIG mice (Greene-Schloesser et al., 2011); cited from earlier work. This is another data set of the same source.

`CNCCC(Oc1ccc(C(F)(F)F)cc1)c1ccccc1` (stereo not drawn) [fluoxetine]: in the series with compulsive-like BIG mice, the overall wheel-running locomotion result is recorded as “failed to reduce”. Also, the NB behavior result in series [1] was “significantly attenuated”. Besides, in series [2], the MB behavior result is on record as “significantly attenuated”.
